Consider seven compounds from ChEMBL document CHEMBL1240441, “New pyrazoline derivatives and their antidepressant activity” (Eur J Med Chem, 2010).

The subject of series [1] is Mus musculus. The series can be described thus: Antidepressant-like activity in Swiss albino mouse assessed as reduction of immobility time at 100 mg/kg, ip measured last 4 mins for 6 mins test by tail suspension test (reference value: 116.4 +/- 4.6 sec). Conditions: route intraperitoneal. The series is classed as functional.
The test system of series [2] is Mus musculus. The series can be described thus: Antidepressant-like activity in Swiss albino mouse assessed as effect on climbing time at 100 mg/kg, ip after 24 hrs measured for 5 mins by modified forced swimming test (reference value: 56.8 +/- 2.6 sec). The format is functional. Conditions: route intraperitoneal.
For series [3], the system named is Mus musculus. The series can be described thus: Antidepressant-like activity in Swiss albino mouse assessed as effect on swimming time at 100 mg/kg, ip after 24 hrs measured for 5 mins by modified forced swimming test (reference value: 95 +/- 9.7 sec). The format is functional. The note with it: route intraperitoneal.
The test system of series [4] is Mus musculus. The series can be described thus: Antidepressant-like activity in Swiss albino mouse assessed as effect on immobility time at 100 mg/kg, ip after 24 hrs measured for 5 mins by modified forced swimming test (reference value: 102.2 +/- 7.5 sec). The format is functional. The note with it: route intraperitoneal.
For series [5], the system named is Mus musculus. The series can be described thus: Neurotoxicity in Swiss albino mouse assessed as effect on motor coordination at 100 mg/kg, ip by rotarod test. The series is classed as toxicity, organism-based. Details: dose 100 mg/kg, route intraperitoneal. The note with it: in vivo. For orientation: The rotarod test checks motor coordination on a turning rod.

The test system of series [6] is Mus musculus. The series can be described thus: Antidepressant-like activity in Swiss albino mouse assessed as effect on climbing time at 10 mg/kg, ip after 24 hrs measured for 5 mins by modified forced swimming test (reference value: 56.8 +/- 2.6 sec). The series is classed as functional. The note with it: route intraperitoneal.
Series [7] has as its system Mus musculus. As to the kind of experiment: Antidepressant-like activity in Swiss albino mouse assessed as reduction of immobility time at 10 mg/kg, ip measured last 4 mins for 6 mins test by tail suspension test (reference value: 116.4 +/- 4.6 sec). The format is functional. The note with it: route intraperitoneal.
Series [8] has as its system Mus musculus. The series can be described thus: Antidepressant-like activity in Swiss albino mouse assessed as effect on immobility time at 10 mg/kg, ip after 24 hrs measured for 5 mins by modified forced swimming test (reference value: 102.2 +/- 7.5 sec). The series is classed as functional. The note with it: route intraperitoneal.
Series [9] concerns Mus musculus. The series can be described thus: Antidepressant-like activity in Swiss albino mouse assessed as effect on swimming time at 10 mg/kg, ip after 24 hrs measured for 5 mins by modified forced swimming test (reference value: 95 +/- 9.7 sec). The format is functional. Conditions: route intraperitoneal.

Consider `Nn1c(CCc2ccc(O)cc2)nnc1SCC(=O)N1N=C(c2cccs2)CC1c1ccc2c(c1)OCO2` (centres undefined), for which the Time in series [1] came out at 96.1 s; in [2], 54.1 s; in series [3], 144.7 s; in [4], 69.9 s. Besides, in [5], the Activity entry was “Non-toxic”.
The matching figures for `Nn1c(CCc2ccc(O)cc2)nnc1SCC(=O)N1N=C(c2cccs2)CC1c1ccccc1` (centres undefined): 69 s, 43.3 s, 191.8 s, 33.3 s and “Non-toxic”.
In the same order, the values of `Nn1c(CCc2ccc(O)cc2)nnc1SCC(=O)N1N=C(c2cccs2)CC1c1ccc(F)cc1` (centres undefined) are 78.8 s, 48.8 s, 153.3 s, 52.5 s and “Non-toxic”.
The matching figures for `Nn1c(CCc2ccc(O)cc2)nnc1SCC(=O)N1N=C(c2cccs2)CC1c1ccc(Cl)cc1` (centres undefined): 72.1 s, 45 s, 193.7 s, 40.5 s and “Non-toxic”.
Regarding `Cc1ccc(C2CC(c3cccs3)=NN2C(=O)CSc2nnc(CCc3ccc(O)cc3)n2N)cc1` (centres undefined), the Time stood at 85.9 s in series [1], 54.4 s in series [2], 147.8 s in series [3] and 58.4 s in series [4]. The Activity result in [5] is “Non-toxic”.
The matching figures for `CN(C)c1ccc(C2CC(c3cccs3)=NN2C(=O)CSc2nnc(CCc3ccc(O)cc3)n2N)cc1` (centres undefined): 93.5 s, 53.5 s, 140 s, 66.2 s and “Non-toxic”.
Take `CNCCC(Oc1ccc(C(F)(F)F)cc1)c1ccccc1` (centres undefined) [FLUOXETINE]: the Time in series [6] is reported as 47.8 s; in series [7], 90.6 s; in [8], 67.6 s; in [9], 148.5 s.
